Converted amounts (≈) assume the structure as drawn. “And” between values parts separate entries of the source, which are not always exact repeats. Equal values may be shown once. Read-outs that look alike come from different tables or passages of the source.
Legend:
[1] = Particle size distribution by laser diffraction (Malvern Mastersizer 2000); type: physicochemical; settings: for Particle Size D10 / Particle Size D50 / Particle Size D90: laser diffraction
Source text: As used herein, the term “particle size” or “particle size distribution (PSD)” when referring to the compound of formula (I) is a list of values that defines the relative amount, typically by mass or volume, of particles present according to size. The distribution data may be reported as cumulative distributions and/or as density distributions by volume or mass such as D(v, 0.1), D(v, 0.5) and D(v, 0.9). In various embodiments, the particle size of a compound of formula (I) may be measured using laser diffraction techniques (e.g., dispersing particles in a sample and illuminating the sample in a collimated laser-beam by scattering light over a range of angles). The large particles generate a high scattering intensity at relatively narrow angles to the incident beam, while the smaller particles produce a lower intensity signal but at much wider angles. Using an array of detectors, laser-diffraction analyzers record the pattern of scattered light produced by the sample. With the application of an appropriate model of light behavior the particle-size distribution of the sample can be determined from the scattering data, via a deconvolution step.
The particle size distribution of Compound 1 was measured using a laser diffraction method. A sample of Compound 1 was either dispersed in water or wetted and dispersed in 0.2% w/v Tween 80 in water to a final concentration spanning approximately 2.5 to 60 mg/mL. Using a Malvern Mastersizer 2000 with a Hydro 2000S sample dispersion unit the obscuration was adjusted to between 10 and 30%. The stir speed was adjusted to 2250-2500 rpm, pre-measurement delay to approximately 30 s, sample measurement time to around 10-15 s, background measurement time to around 10-15 s and the particle shape assumed to be irregular. The samples were at a concentration between 0.0032-0.0044% vol and had specific surface area between 1.65 and 2.10 m^2/g, a surface weighted mean between 2.87 and 3.64 μm, and a volume weighed mean between 3.62 and 4.67 μm. The measurements were obtained using the Mie scattering model (material refractive index=1.520, dispersant refractive index=1.330, absorption=0.001 or 0.1) with normal sensitivity.

[2] = Solubility of the compound of formula (I) in aqueous media; type: physicochemical
Source text: The compound of formula (I) belongs in the high permeability, poor solubility drug classification (BCS 2) described in the Biopharmaceutics Classification System (BCS). In the improved widely accepted Developability Classification System (DCS) discussed by Butler and Dressman, the high permeability low solubility category is further divided into two classifications. Specifically, the ratio of the dose to the solubility of the drug in FaSSIF can be used to predict the extent of human absorption. Class 2a describes compounds that have good permeability and poor solubility with a smaller dose to solubility ratio. Class 2b describes compounds that have a higher dose to solubility ratio and likely will be incompletely absorbed unless the drug is formulated in an already solubilized form, and therefore might present a major challenge to the formulator. […] That is, even for a dose of 10 mg about only 1.2% of the dose of the drug may dissolve in a glass of water or FaSSIF. For Class 2b compounds the system predicts that particle reduction should have no impact on bioavailability. Martinez and Amidon offer: “In the case of solubility-limited absorption particle size exerts minimal effect on the fraction of drug absorbed. In this situation, fraction of drug absorbed can only be improved by enhancing drug solubility (e.g., via inclusion of surfactants in the drug formulation.) Conversely particle size exerts its greatest effect when solubility is not a problem.” (Martinez and Amidon; J. Clin. Pharmacol.; 2002; 42; 620-643). In light of the very large […] for the compound of formula (I), oral absorption of the compound of formula (I) is solubility limited, and reduction of particle size should not affect its bioavailability.

[3] = Pharmacokinetic profile of Form C of Compound 1 (micronized and un-micronized) in rat, oral gavage; type: in vivo; settings: male Sprague-Dawley rats, oral gavage 15 mg/kg; for AUClast / Cmax / Tmax: suspended in 2% aqueous PVP-VA, 15 mg/kg
Method: Two groups, each with three male Sprague-Dawley rats, received an oral gavage dose of Compound 1 (un-micronized Form C or micronized Form C) suspended in 2% aqueous PVP-VA at a concentration and volume intended to achieve a target dose level of 15 mg/kg.
Serial blood samples were collected from each animal at 0.25, 0.5, 1, 2, 4, 6, 8 and 24 hours after dosing. Blood samples, which were collected into tubes containing K2EDTA, were processed for plasma. Plasma samples were analyzed for Compound 1 by LC-MS/MS. Non-compartmental pharmacokinetic parameter estimates were calculated from the plasma concentration-time data for each animal. […] In Table 8 the subscripts to AUC last and inf refer to that AUC to the last sampling time point and extrapolated to infinite time, respectively.

[4] = lot used for 8 kg blend batch, 20 mg dose strength
[5] = lot used for 12 kg blend batch, 30 mg dose strength
[6] = lot used for 34.7 kg blend batch, 20 mg dose strength
[7] = lot used for 52 kg blend batch, 30 mg dose strength

Compound | Particle Size D10 [1] [μm] | Particle Size D50 [1] | Particle Size D90 [1] | also measured
C[C@@]1(O)CC[C@H]2[C@H](CC[C@@H]3[C@@H]2CC[C@]2(C)[C@@H](C(=O)Cn4cc(C#N)cn4)CC[C@@H]32)C1 [Un-micronized Form C of Compound 1a] | 3.1 | 11.8 μm | 27.1 μm | 
C[C@@]1(O)CC[C@H]2[C@H](CC[C@@H]3[C@@H]2CC[C@]2(C)[C@@H](C(=O)Cn4cc(C#N)cn4)CC[C@@H]32)C1 [Compound 1, 1-(2-((3R,5R,8R,9R,10S,13S,14S,17S)-3-hydroxy-3,13-dimethylhexadecahydro-1H-cyclopenta[a]phenanthren-17-yl)-2-oxoethyl)-1H-pyrazole-4-carbonitrile] |  |  |  | solubility in aqueous media [2]: practically insoluble; ratio of the dose to solubility in FaSSIF ([2]; 10 mg dose): greater than 10,000; ratio of the dose to solubility in FaSSIF ([2]; 20 mg dose): > 20,000; ratio of the dose to solubility in FaSSIF ([2]; 30 mg dose): > 30,000; ratio of the dose to solubility in FaSSIF ([2]; 90 mg dose): > 90,000; ratio of the dose to solubility in FaSSIF ([2]; 100 mg dose): > 100,000; part of the dose that may dissolve in a glass of water or FaSSIF ([2]; dose of 10 mg): ~1.2%; Biopharmaceutics Classification System (BCS) classification ([2]; high permeability, poor solubility): BCS 2; solubility ([2]; water): 0.8 to 3 µg/mL (≈ 1.95 to 7.32 µM)
C[C@@]1(O)CC[C@H]2[C@H](CC[C@@H]3[C@@H]2CC[C@]2(C)[C@@H](C(=O)Cn4cc(C#N)cn4)CC[C@@H]32)C1 [Un-micronized Form C of Compound 1d] | 5.6 | 16.2 μm | 37.7 μm | 
C[C@@]1(O)CC[C@H]2[C@H](CC[C@@H]3[C@@H]2CC[C@]2(C)[C@@H](C(=O)Cn4cc(C#N)cn4)CC[C@@H]32)C1 [Micronized Form A of Compound 1] | 1.5 | 4.2 μm | 11.1 μm | 
C[C@@]1(O)CC[C@H]2[C@H](CC[C@@H]3[C@@H]2CC[C@]2(C)[C@@H](C(=O)Cn4cc(C#N)cn4)CC[C@@H]32)C1 [Micronized Form C of Compound 1d] | 1.0 | 2.4 μm | 4.6 μm | 
C[C@@]1(O)CC[C@H]2[C@H](CC[C@@H]3[C@@H]2CC[C@]2(C)[C@@H](C(=O)Cn4cc(C#N)cn4)CC[C@@H]32)C1 [Un-micronized Form C of Compound 1b] | 3.2 | 14.7 μm | 33.6 μm | 
C[C@@]1(O)CC[C@H]2[C@H](CC[C@@H]3[C@@H]2CC[C@]2(C)[C@@H](C(=O)Cn4cc(C#N)cn4)CC[C@@H]32)C1 [Un-micronized Form C of Compound 1] |  |  |  | AUClast [3]: 979 ng·h/mL; Cmax [3]: 83.6 ng/mL; Tmax ([3]; male, Sprague-Dawley, rat, plasma, po, read-out: Tmax): 6.67 h; AUC(0-inf) ([3]; rat, plasma, extrapolated to infinite time): 854 ng·h/mL
C[C@@]1(O)CC[C@H]2[C@H](CC[C@@H]3[C@@H]2CC[C@]2(C)[C@@H](C(=O)Cn4cc(C#N)cn4)CC[C@@H]32)C1 [Micronized Form C of Compound 1b] | 0.8 | 2.1 μm | 5.2 μm | 
C[C@@]1(O)CC[C@H]2[C@H](CC[C@@H]3[C@@H]2CC[C@]2(C)[C@@H](C(=O)Cn4cc(C#N)cn4)CC[C@@H]32)C1 [Micronized Form C of Compound 1] |  | 3.5 μm and 3.2 μm and 4.1 μm and 3.7 μm | 6.6 μm and 6.1 μm and 8.0 μm and 8.9 μm | AUClast [3]: 3647 ng·h/mL; Cmax [3]: 308 ng/mL; Tmax [3]: 6.00 h; Particle Size Distribution D10 [1, 4]: 1.7; Particle Size Distribution D50 [1, 4]: 3.2; Particle Size Distribution D90 [1, 4]: 6.1; Particle Size Distribution D10 [1, 5]: 1.7; Particle Size Distribution D50 [1, 5]: 3.2; Particle Size Distribution D90 [1, 5]: 6.1; Particle Size Distribution D10 [1, 6]: 1.8; Particle Size Distribution D50 [1, 6]: 3.3; Particle Size Distribution D90 [1, 6]: 6.5; Particle Size Distribution D10 [1, 7]: 2.1; Particle Size Distribution D50 [1, 7]: 4.1; Particle Size Distribution D90 [1, 7]: 8.0
C[C@@]1(O)CC[C@H]2[C@H](CC[C@@H]3[C@@H]2CC[C@]2(C)[C@@H](C(=O)Cn4cc(C#N)cn4)CC[C@@H]32)C1 [Micronized Form C of Compound 1c] | 1.1 | 2.7 μm | 5.4 μm | 
C[C@@]1(O)CC[C@H]2[C@H](CC[C@@H]3[C@@H]2CC[C@]2(C)[C@@H](C(=O)Cn4cc(C#N)cn4)CC[C@@H]32)C1 [Un-micronized Form C of Compound 1c] | 3.6 | 16.0 μm | 35.5 μm | 
C[C@@]1(O)CC[C@H]2[C@H](CC[C@@H]3[C@@H]2CC[C@]2(C)[C@@H](C(=O)Cn4cc(C#N)cn4)CC[C@@H]32)C1 [Micronized Form C of Compound 1a] | 0.9 | 2.4 μm | 6.1 μm | 

— patent publication US20230057130A1, “FORMULATIONS OF 19-NOR C3,3-DISUBSTITUTED C21-N-PYRAZOLYL STEROID AND METHODS OF USE THEREOF” (priority 2020, published 2023)
